The source of these data is ChEMBL document CHEMBL1201862, “PubChem BioAssay data set” (2004).

The source made the active and inactive calls. Bounds are passed on as bounds.

One data set addresses Cytochrome P450 2C19 (Homo sapiens, UniProt P33261). The data set is described as follows: Cytochrome panel assay with activity outcomes. Panel member name: p450-cyp2c19 Compounds with AC50 equal or less than 10 uM are considered active. The data set is classed as functional.
Another data set has as its system Streptococcus. The data set is described as follows: Group A Streptococcus viability loss, dose response, counter-screen for streptokinase expression inhibitor project, luminescence, BacTiterGlo (AID 1915).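 Further: potency for reduction of bacterial viability or growth.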 The data set is classed as functional, organism-based. In general terms: A counterscreen serves to expose hits that act by an unwanted route or on another target.

Data set [1] concerns Streptococcus sp. 'group A'. The data set is described as follows: growth inhibition of control SK(-) GAS strain, dose response, counter-screen for streptokinase expression inhibitor project, luminescence, kanamycin, BacTiterGlo, confirmation (AID 1900). The format is functional, organism-based.
The target of another data set is T1, Streptokinase A (Streptococcus pyogenes serotype M1, UniProt P10520).
T1 sequence (P10520 whole entry): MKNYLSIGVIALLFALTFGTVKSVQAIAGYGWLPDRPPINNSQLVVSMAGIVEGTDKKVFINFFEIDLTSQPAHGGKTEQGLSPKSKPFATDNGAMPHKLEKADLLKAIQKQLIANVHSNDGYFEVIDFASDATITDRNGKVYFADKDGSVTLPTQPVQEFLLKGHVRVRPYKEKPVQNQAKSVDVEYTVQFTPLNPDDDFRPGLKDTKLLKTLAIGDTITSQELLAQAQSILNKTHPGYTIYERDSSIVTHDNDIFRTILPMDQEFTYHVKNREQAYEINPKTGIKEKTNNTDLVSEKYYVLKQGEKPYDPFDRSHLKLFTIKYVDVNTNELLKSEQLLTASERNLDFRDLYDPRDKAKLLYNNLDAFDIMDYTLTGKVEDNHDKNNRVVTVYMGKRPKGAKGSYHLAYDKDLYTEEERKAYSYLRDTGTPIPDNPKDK
In words: S. pyogenes streptokinase expression inhibitors, potency, dose response, plasminogen activation absorbance, OD405 (AID 1914).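 Further: secreted streptokinase activity via plasminogen activation per viability signal from cell pellet.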 The data set is classed as functional, Streptococcus pyogenes M1 GAS.

A short description of data set [2]: cytotoxicity toward NIH3T3 fibroblasts, dose response, counter-screen, cell-based, ATP luminescence, mouse fibroblasts (AID 2010).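 Further: cells exposed to compound for about 90 hours before reading.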 The format is functional.
The nature of data set [3]: inhibitors of intracellular T. cruzi replication, confirmation, NIH3T3 host cells, beta-gal luminescence (AID 2044).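 Further: intracellular parasites grown in NIH/3T3 mouse fibroblasts as host cells; luminescent beta-galactosidase reporter signal from transgenic T. cruzi replicating inside host cells; inhibitors lower the luminescence signal.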 The data set is classed as functional, cell-based.
For data set [4], the target named is T2, Replicative DNA helicase DnaB (Mycobacterium tuberculosis, UniProt P9WMR3).
T2 sequence (P9WMR3 whole entry): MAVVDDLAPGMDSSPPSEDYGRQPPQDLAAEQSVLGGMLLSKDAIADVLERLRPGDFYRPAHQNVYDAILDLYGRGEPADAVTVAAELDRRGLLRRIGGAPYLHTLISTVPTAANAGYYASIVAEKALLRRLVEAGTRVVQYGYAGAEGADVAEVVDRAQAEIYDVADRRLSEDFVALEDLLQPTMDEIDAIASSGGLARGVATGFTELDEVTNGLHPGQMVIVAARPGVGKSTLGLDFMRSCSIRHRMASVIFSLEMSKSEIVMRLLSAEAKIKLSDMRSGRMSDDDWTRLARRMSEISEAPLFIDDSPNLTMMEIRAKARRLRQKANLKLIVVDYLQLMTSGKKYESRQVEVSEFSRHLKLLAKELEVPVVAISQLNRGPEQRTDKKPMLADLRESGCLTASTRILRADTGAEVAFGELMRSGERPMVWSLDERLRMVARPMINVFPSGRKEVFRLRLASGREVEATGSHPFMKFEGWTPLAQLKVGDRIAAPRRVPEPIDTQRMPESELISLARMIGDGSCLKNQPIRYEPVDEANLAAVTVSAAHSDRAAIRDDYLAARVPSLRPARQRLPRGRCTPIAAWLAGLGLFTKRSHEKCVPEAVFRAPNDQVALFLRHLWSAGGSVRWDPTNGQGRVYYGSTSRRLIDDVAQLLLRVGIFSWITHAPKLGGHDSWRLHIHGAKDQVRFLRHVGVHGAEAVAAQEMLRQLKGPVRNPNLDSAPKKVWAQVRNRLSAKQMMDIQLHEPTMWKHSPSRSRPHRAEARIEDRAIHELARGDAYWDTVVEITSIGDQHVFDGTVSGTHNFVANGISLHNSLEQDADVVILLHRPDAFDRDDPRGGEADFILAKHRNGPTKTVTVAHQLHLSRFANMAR
In words: DnaB intein splicing inhibitors, dose response, biochemical, cell-free fluorescence (AID 449749). The data set is classed as functional.

The next data set addresses T3, Protein RecA (Mycobacterium tuberculosis, UniProt P9WHJ3).
T3 sequence (P9WHJ3 whole entry): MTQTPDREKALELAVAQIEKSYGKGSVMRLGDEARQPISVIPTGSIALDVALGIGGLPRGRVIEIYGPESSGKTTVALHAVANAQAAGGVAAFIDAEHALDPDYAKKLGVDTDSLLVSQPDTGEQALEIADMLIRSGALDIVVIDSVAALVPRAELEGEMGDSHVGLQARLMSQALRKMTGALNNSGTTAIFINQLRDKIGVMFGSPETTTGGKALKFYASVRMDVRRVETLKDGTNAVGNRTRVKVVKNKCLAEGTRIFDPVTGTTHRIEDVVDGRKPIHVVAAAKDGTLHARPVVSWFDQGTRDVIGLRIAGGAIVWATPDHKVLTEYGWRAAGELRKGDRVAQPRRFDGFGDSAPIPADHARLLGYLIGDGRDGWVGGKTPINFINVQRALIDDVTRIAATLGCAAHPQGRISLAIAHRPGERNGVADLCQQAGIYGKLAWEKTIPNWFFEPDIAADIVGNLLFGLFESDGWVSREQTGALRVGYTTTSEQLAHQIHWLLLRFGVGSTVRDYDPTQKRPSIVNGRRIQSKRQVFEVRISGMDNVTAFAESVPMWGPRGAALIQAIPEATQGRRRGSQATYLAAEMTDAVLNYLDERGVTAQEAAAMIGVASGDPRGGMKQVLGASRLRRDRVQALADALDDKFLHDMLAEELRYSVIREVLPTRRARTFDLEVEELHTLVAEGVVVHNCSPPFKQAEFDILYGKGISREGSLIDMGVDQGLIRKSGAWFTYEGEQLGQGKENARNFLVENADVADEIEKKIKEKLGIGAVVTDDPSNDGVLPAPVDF
In words: Fluorescence Cell-Free Homogeneous Dose Retest to Identify Inhibitors of RecA-Intein Splicing Activity. [Related pubchem assays (depositor defined):AID2097, AID2223, AID489010, AID492950]. The format is functional.

Cytochrome P450 2C19, sequence (P33261 whole entry): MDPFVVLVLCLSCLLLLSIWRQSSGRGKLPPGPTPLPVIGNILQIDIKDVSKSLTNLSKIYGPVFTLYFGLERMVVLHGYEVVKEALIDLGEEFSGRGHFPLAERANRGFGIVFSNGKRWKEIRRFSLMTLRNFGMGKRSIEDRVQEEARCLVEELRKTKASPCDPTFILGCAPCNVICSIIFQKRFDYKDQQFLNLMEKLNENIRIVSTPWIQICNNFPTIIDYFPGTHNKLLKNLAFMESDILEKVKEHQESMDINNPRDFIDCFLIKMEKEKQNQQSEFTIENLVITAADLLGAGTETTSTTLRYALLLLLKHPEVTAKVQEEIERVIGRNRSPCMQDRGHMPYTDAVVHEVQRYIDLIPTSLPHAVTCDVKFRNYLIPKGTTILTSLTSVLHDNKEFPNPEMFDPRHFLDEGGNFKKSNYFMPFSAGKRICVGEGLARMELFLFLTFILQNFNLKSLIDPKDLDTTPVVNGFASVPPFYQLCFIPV

Regarding `c1ccc(C2CCC(N3CCC(N4CCCCC4)CC3)CC2)cc1` (stereo not given), the AC50 (commonly the midpoint of the concentration-response curve, whichever way the signal moves) at Cytochrome P450 2C19 (read-out: AC50) is 31.6 µM (inconclusive).
As to `O=C(O)CC/C(=C\c1cc2c(cc1Br)OCO2)c1nc2ccccc2s1`, the EC50 – broadly, the midpoint of the concentration-response curve – was > 150 µM (not active) in the data set with Streptococcus, 5.71 µM (active) in data set [1] and 56 µM (active) at Streptokinase A.
Taken in the same sequence, the figures for `Cc1ccccc1N1CCN(S(=O)(=O)c2nnc(NC(=O)c3ccco3)s2)CC1` were 41.7 µM (active), 11 µM (active) and 5.16 µM (active).
As for `CC(C)C[C@@H](C(=O)NC1CCN(Cc2ccccc2)CC1)N1C(=O)N2CCc3c([nH]c4ccccc34)[C@@]2(C)C1=O`, the EC50 in data set [2] was 5.05 µM (active); in data set [3], 6.88 µM (active).
For `COc1cccc(C(Nc2ccccn2)c2c(NC(=O)c3ccco3)sc(C)c2C)c1` (stereo not given) the same measures were > 60 µM (not active) and 2.53 µM (active).
For the compound `Cc1cccc(CSC2=NCCN2S(=O)(=O)c2ccc(F)cc2)c1`, the EC50 with Streptococcus was > 150 µM (not active); in data set [1], 41.8 µM (active); at Streptokinase A, 23.2 µM (active).
Consider `CCOc1ccc(CCNC(=O)C(CC)n2nc(C)n3c(cc4sccc43)c2=O)cc1OCC` (stereo not given), for which the values for the EC50 in data set [2] and in data set [3] were > 60 µM (not active) and 1.31 µM (active), respectively.
Consider `CC(C)(C)c1cc(C(=O)CCN2CCOCC2)cc(C(C)(C)C)c1O`, for which the AC50 in data set [4] is 129 µM (active). In addition, on Protein RecA, the EC50 was 16.8 µM (active).
As to `Cn1c(=O)c2nc(CCCCc3nc4c(=O)n(C)c(=S)n(C)c4[nH]3)[nH]c2n(C)c1=S`, the AC50 entry at Cytochrome P450 2C19 was “inconclusive”.
Take `CN(CCOc1ccccc1)CC(=O)Nc1ccc(S(=O)(=O)N2CCCC2)cc1`: the results for the EC50 in data set [2] and in data set [3] were > 60 µM (not active) and 0.695 µM (active), respectively.
For `CCOc1ccc2oc(C(=O)NC3CCN(Cc4ccccc4)CC3)c(C)c2c1` the same measures were > 60 µM (not active) and 2 µM (active).
With `Cc1ccc(S(=O)(=O)NCc2cccc([N+](=O)[O-])c2)cc1`, the AC50 at Cytochrome P450 2C19 (read-out: AC50) is 2.51 µM (inconclusive).
For `CC(NCc1ccncc1)C12CC3CC(CC(C3)C1)C2` (stereo not given), the EC50 in data set [2] and in data set [3] was > 60 µM (not active) each time.
As to `C#C[C@]1(O)CC[C@@H]2[C@H]3CCc4cc(OC)ccc4[C@@H]3CC[C@@]21C`, at Cytochrome P450 2C19 (read-out: AC50), the AC50 was 1.26 µM (inconclusive).
For `CC[C@H]1C2=C3C(CC[C@H]4C(OCc5ccc(F)cc5C(F)(F)F)OC[C@](C)([C@@H]34)N(C(=O)OC(C)(C)C)C2)C2COC(=O)OCC21` (stereo not given in full), on Cytochrome P450 2C19 (read-out: AC50), the AC50 is 39.8 µM (inconclusive).
Consider `OC(CN1CCN(Cc2ccccc2)CC1)c1ccc(Br)cc1` (stereo not given), for which the EC50 in data set [2] is 10 µM (active); in data set [3], 0.324 µM (active).
`Cc1ccc(C(=O)Nc2nc(-c3ccccc3)c(-c3ccccc3)o2)cc1`: the EC50 in data set [2] is > 60 µM (not active); in the data set with Streptococcus, 2.36 µM (active); in data set [1], 1.27 µM (active); in data set [3], 2.48 µM (active).
Consider `Cc1c(C(=O)N2CCN(S(=O)(=O)c3ccc(F)cc3)CC2)oc2ccccc12`, for which the EC50 was > 60 µM (not active) in data set [2] and 0.447 µM (active) in data set [3].
For the compound `COC(=O)NCC(c1cccnc1)N1CCN(c2ccccc2OC)CC1` (stereo not given), the AC50 on Cytochrome P450 2C19 (read-out: AC50) is 11.2 µM (inconclusive).
For `CC(C)C(NC(=O)C(c1ccccc1)c1ccccc1)c1nc2ccccc2[nH]1` (stereo not given), the figures for the EC50 (with Streptococcus; in data set [1]; on Streptokinase A) were 16 µM (active), 1.87 µM (active) and > 150 µM (not active), respectively.
Consider `COc1ccc(C(=O)NNC(=S)NC(=O)c2ccco2)cc1`, for which the EC50 in the data set on Streptococcus was 12 µM (active); in data set [1], 2.98 µM (active); at Streptokinase A, > 150 µM (not active).
For `CCCCN(CCCC)c1cc(C)nc(-c2ccccc2O)n1` the same measures were > 150 µM (not active), 19.7 µM (active) and 5.4 µM (active).
As for `CCCC[C@@H]1C[C@H]1C(NC(=O)c1cccs1)c1ccc(C(F)(F)F)cc1` (stereo not given in full), the AC50 result on Cytochrome P450 2C19 is “inconclusive”.
On to `COc1cc(C(c2c(C)n[nH]c2O)c2c(C)n[nH]c2O)ccc1OC(C)C`, for which the concentration at half-maximal activity (AC50) in data set [4] is 0.318 µM (active). In addition, the EC50 on Protein RecA was 0.223 µM (active).
Regarding `Cc1cc(Cl)c(OCCOCCN2CCCC(C)C2)c(Br)c1` (stereo not given), the results for the concentration giving a half-maximal response (EC50) in data set [2] and in data set [3] were > 60 µM (not active) and 0.393 µM (active), respectively.
For `COc1ccc(N2C(=O)C(Cl)=C(N3CCN(Cc4ccccc4)CC3)C2=O)cc1`, the AC50 in data set [4] is 8.12 µM (active). Besides, the EC50 on Protein RecA was 1.67 µM (active).
Taken in the same sequence, the figures for `O=c1oc(-c2ccccc2Cl)nc2ccsc12` were 14 µM (active) and 23.3 µM (active).
For `CN(C)CCCOc1ccc(Cl)cc1Br`, the EC50 in data set [2] was > 60 µM (not active); in data set [3] it was 0.535 µM (active).
As to `O=C(COc1ccccc1)Nc1nnc(-c2ccccc2Cl)o1`, the EC50 (with Streptococcus; in data set [1]; on Streptokinase A) was > 150 µM (not active) in each case.
With `COc1ccccc1N=C(S)N(Cc1ccc(C)cc1)Cc1ccccn1`, the EC50 in data set [2] was > 60 µM (not active); in data set [3], 1.55 µM (active).
For `CN(C)CCCNC(=O)c1cc2c3ccccc3n(C)c2s1`, the figures for the EC50 in data set [2] and in data set [3] were > 60 µM (not active) and 0.136 µM (active), respectively.
For the compound `COC(=O)N1CCC2(CCN(C(=O)Nc3cccc(F)c3)CC2)CC1`, the AC50 at Cytochrome P450 2C19 (read-out: AC50) was 5.01 µM (inconclusive).
`Cc1n[nH]c(O)c1C(c1ccc(Br)cc1)c1c(C)n[nH]c1O`: in data set [4], the AC50 is 0.588 µM (active). Moreover, the half-maximal effective concentration (EC50) at Protein RecA is 0.338 µM (active).
With `Cc1cc(C)n2nc(SCC(=O)N/N=C/c3ccccc3F)nc2n1`, the AC50 at Cytochrome P450 2C19 (read-out: AC50) was 20 µM (inconclusive).
On to `CC1(C)S[C@@H]2[C@H](NC(=O)C(NC(=O)N3CCNC3=O)c3ccccc3)C(=O)N2[C@H]1C(=O)O` (stereo not given in full), for which the EC50 (in the data set with Streptococcus; in data set [1]) was < 0.06 µM (active) in each case.
